Source: article PMC4832243, “Discovery of Potent VEGFR-2 Inhibitors based on Furopyrimidine and Thienopyrimidne Scaffolds as Cancer Targeting Agents” (Scientific Reports, 2016)

What was measured:
VEGFR-2 (KDR) = biological target: T1, VEGFR-2 (KDR) (Homo sapiens, UniProt P35968); test: In vitro VEGFR-2 tyrosine kinase activity (Kinase-Glo Plus luminescence, BPS Bioscience); type: biochemical; details: 5 concentrations 1 nM - 10 μM
T1 construct: purchased BPS Bioscience 40301

c-Kit = c-Kit (Homo sapiens, UniProt P10721); test: In vitro multiple-kinase inhibition assay, c-Kit (ADP-Glo); type: biochemical
Method: (§1) In vitro multiple-kinase inhibition assay. […] Kinase enzymatic activity of the tested compounds was evaluated against a reference kinase inhibitor at 10 μM (Table 2).
(§2) The multiple kinases activity at single dose concentration of 10 μM was performed, c-Kit, c-Raf, c-Src, RET served as the enzyme source. […] Kinase-Glo Plus Luminescence kinase assay kit (Promega#V3772), ADP-Glo Luminescence assay kit was used for c-kit assay (Supplementary). […]
(§3) mM MgCl2, 0.1 mg/ml BSA, 1 mM DTT, 10 µM ATP, Kinase substrate and VEGFR. After the enzymatic reaction, 50 µl of Kinase-Glo Plus Luminescence kinase assay solution (Promega) was added to each reaction and incubate the plate for 5 minutes at room temperature.
(§4) Luminescence signal was measured using a BioTek Synergy 2 microplate reader. VEGFR activity assays were performed in duplicate at each concentration.
(§5) The luminescence data were analyzed using the computer software, Graphpad Prism. The difference between luminescence intensities in the absence of VEGFR (Lut) and in the presence of VEGFR (Luc) was defined as 100 % activity (Lut – Luc). Using luminescence signal (Lu) in the presence of the compound, % activity was calculated as:
(§6) % activity = {(Lut - Lu)/(Lut - Luc)}×100%, where Lu= the luminescence intensity in the […]
(§7) IC50 determination for inhibitor against VEGFR was calculated. The values of % activity versus a series of compound concentrations (1 nM - 10 nM - 100 nM - 1 µM - 10 µM) were then […]
(§8) or Hill coefficient. The IC50 value was determined by the concentration causing a half-maximal […]
(§9) In vitro multiple-kinase inhibition assay
The assay was performed using the same conditions for VEGFR-2 activity assay (section 5.2.1.1). The assays for c-Kit was an exception, it was performed using ADP-Glo Kinase assay reagents (Promega). It measures kinase activity by quantitating the ADP amount produced from the enzymatic reaction. The luminescent signal from the assay is correlated with the amount of ADP present and is directly correlated with the amount of kinase activity. Other conditions are same to the previous section except the final reaction volume was reduced to 25 µl. After the 40 min kinase reaction at 30 °C, 25 µl of ADP-Glo reagent was added and incubated for 45 min at room temperature followed by another 50 min incubation with 50 µl of Kinase detection mixture.
(§10) Luminescence signal was measured using a BioTek Synergy 2 microplate reader […]
(§11) The luminescence data were analyzed using the same computer software and the same protocol

c-Raf = c-Raf (Homo sapiens, UniProt P04049); test: In vitro multiple-kinase inhibition assay, c-Raf; type: biochemical
Method: as §1, §2, §3, §4, §5, §6, §7, §8, §9, §10, §11

c-Src = c-Src (Homo sapiens, UniProt P12931); test: In vitro multiple-kinase inhibition assay, c-Src; type: biochemical
Method: as §1, §2, §3, §4, §5, §6, §7, §8, §9, §10, §11

RET = RET (Homo sapiens, UniProt P07949); test: In vitro multiple-kinase inhibition assay, RET; type: biochemical
Method: as §1, §2, §3, §4, §5, §6, §7, §8, §9, §10, §11

[1] = tested on: HUVEC umbilical vein endothelial cells; test: In vitro HUVEC anti-proliferative assay (alamarBlue); type: cell-based; details: Homo sapiens, HUVEC proliferation at 10 μM, 72 hours
[2] = tested on: Ehrlich ascites carcinoma (EAC) solid tumor; test: In vivo anticancer activity, EAC solid tumor murine model; parameters: species or system Swiss albino mice; details: for TGI (%): once daily for 8 consecutive days; for Histopathological examination of EAC tumor sections (necrosis): hematoxylin-eosin, 40x
Method: Animals. Female Swiss albino mice weighing 15–20 g were used in the present study. They were obtained from the animal breeding laboratory, National Cancer Institute (NCI), Cairo University, Egypt. Animals were kept in our animal facility, faculty of pharmacy, Ain Shams university at 25 ± 2 °C and a relative humidity of 40–45% with alternative day and night cycles of 12 h each. Animals had free access to pellet food and water ad libitum. Standard diet pellets (El-Nasr, Abu Zaabal, Egypt) contained not less than 20% protein, 5% fiber, 3.5% fat, 6.5% ash and a vitamin mixture. Animal care and experiments were conducted in accordance with the protocols approved by the Ethics Research Committee, Faculty of Pharmacy, Ain Shams University, following the Institutional Animal Care and Use Committee guidelines.
Tumor cells preparation and transplantation. Ehrlich ascites carcinoma (EAC) cells were obtained from NCI, Cairo University, Egypt. EAC cells were maintained in the ascitic form in Swiss albino mice by intraperitoneal transplantation of each mouse every 10 days. Ascitic fluid was drawn from tumor-bearing mice at the log phase (7–8th day of tumor bearing) of the tumor cells. The freshly drawn fluid was diluted with ice-cold sterile isotonic saline. 200 μl tumor cell suspension containing 2 × 10^6 tumor cells were then subcutaneously injected in each mouse.
Experimental design. Swiss albino mice were divided into six groups (n = 6 per group).
Evaluation of effectiveness. Tumor growth curve was drawn according to the change in tumor volume from first day of treatment (day 0) till day 7. Longest and shortest diameters of the solid tumor were monitored using a digital vernier caliper. Tumor volume (TV) of each animal was calculated using the following formula: […]
Tumor growth inhibition (TGI) was calculated as follows.
RTV = (Tumor volume at the day of measurement)/Tumor volume at the initial day.
Histopathological Examination
thickness by slidge microtome.
graded ethanol solutions.

[3] = Toxicity: vital organs' indices and histopathology in EAC solid tumor bearing mice; type: in vivo, Swiss albino mice; details: for Brain Index / Heart Index / Kidney Index / Liver Index: mean ± SD (n = 6); for Histopathological examination of liver, kidney, heart and brain samples: 10 mg/kg, EAC solid tumor bearing mice (40x)
[4] = tested on: VEGF-induced vascular permeability (Evans Blue extravasation); test: Miles vascular permeability assay; parameters: species or system mice; details: in vivo; 10 mg/kg (Fig. 15)
Method: Miles Vascular Permeability Assay. One to two days prior to the experiment, mice were shaved to expose the skin. Mice were anesthetized with intra-peritoneal injection of Avertin. A sterile solution of 1% Evans Blue (EB) in PBS was prepared and 100 μl was injected IV into the tail vein, using a needle (small gauge, 27–30) at a 10–15 degree angle. The animals were then left for (30–60) min. VEGF (50 μl of 1 ng/μl) and 50 μl of PBS with 0.05% gelatin were injected intradermally using a 30-gauge needle into the skin overlying the back. After 20 min, the animals were sacrificed by cervical dislocation that is recommended to limit significant interference with vascular permeability. The skin was opened, exposed and representative pictures were taken to assess the intensity of EB […]. The Formamide/EB mixture was centrifuged and supernatant absorbance was measured at 600 nm (Shimadzu Spectrophotometer, UV-1601; Japan). extravasation was calculated as ng EB per mg tissue.

phospho-VEGFR-2 (Tyr951) = phospho-VEGFR-2 (Tyr951) (Mus musculus, UniProt P35918); test: Immunohistochemistry of EAC solid tumor sections, phospho-VEGFR-2; details: oral treatment of EAC-bearing mice
active caspase 3 = test: Immunohistochemistry of EAC solid tumor sections, active caspase 3; details: oral treatment of EAC-bearing mice
CD31 and CD34 (% MVD) = test: Immunohistochemistry of EAC solid tumor sections, microvessel density (CD31, CD34); details: oral treatment of EAC-bearing mice
[5] = tested on: platelet-derived growth factor receptor-B (PDGFR-B); details: cited from earlier work
[6] = tested on: stem cell factor receptor (c-KIT); details: cited from earlier work
[7] = biological target: fms-related tyrosine kinase 3 receptor (FLT3); details: cited from earlier work
RET tyrosine kinase = biological target: RET tyrosine kinase; parameters: method as in PMID 16507829; details: cited from earlier work
wild-type b-Raf = details: read-out: wild-type b-Raf IC50; cited from earlier work
VEGFR-2 = details: read-out: VEGFR-2 IC50 of pyrrolo[3,2-d]pyrimidine derivative (III); cited from earlier work

c-Raf, sequence (P04049 whole entry, species assumed): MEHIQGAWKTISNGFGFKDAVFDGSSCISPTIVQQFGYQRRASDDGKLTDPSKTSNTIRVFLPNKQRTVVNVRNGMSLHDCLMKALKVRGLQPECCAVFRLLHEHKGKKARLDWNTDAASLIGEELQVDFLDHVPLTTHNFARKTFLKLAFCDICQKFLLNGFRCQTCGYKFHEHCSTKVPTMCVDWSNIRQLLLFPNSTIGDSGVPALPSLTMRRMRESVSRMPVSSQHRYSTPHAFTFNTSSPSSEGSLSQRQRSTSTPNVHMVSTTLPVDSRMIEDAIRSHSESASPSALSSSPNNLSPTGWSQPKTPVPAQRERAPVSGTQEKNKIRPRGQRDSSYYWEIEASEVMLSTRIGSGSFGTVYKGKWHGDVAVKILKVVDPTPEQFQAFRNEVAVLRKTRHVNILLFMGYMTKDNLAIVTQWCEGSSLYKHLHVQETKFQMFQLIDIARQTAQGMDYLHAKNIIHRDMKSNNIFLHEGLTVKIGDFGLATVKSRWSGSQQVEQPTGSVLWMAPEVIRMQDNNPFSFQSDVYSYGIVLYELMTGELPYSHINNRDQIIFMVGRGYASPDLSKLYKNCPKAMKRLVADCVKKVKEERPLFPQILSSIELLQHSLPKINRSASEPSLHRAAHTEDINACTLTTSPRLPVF
T1 sequence (P35968 20-1356): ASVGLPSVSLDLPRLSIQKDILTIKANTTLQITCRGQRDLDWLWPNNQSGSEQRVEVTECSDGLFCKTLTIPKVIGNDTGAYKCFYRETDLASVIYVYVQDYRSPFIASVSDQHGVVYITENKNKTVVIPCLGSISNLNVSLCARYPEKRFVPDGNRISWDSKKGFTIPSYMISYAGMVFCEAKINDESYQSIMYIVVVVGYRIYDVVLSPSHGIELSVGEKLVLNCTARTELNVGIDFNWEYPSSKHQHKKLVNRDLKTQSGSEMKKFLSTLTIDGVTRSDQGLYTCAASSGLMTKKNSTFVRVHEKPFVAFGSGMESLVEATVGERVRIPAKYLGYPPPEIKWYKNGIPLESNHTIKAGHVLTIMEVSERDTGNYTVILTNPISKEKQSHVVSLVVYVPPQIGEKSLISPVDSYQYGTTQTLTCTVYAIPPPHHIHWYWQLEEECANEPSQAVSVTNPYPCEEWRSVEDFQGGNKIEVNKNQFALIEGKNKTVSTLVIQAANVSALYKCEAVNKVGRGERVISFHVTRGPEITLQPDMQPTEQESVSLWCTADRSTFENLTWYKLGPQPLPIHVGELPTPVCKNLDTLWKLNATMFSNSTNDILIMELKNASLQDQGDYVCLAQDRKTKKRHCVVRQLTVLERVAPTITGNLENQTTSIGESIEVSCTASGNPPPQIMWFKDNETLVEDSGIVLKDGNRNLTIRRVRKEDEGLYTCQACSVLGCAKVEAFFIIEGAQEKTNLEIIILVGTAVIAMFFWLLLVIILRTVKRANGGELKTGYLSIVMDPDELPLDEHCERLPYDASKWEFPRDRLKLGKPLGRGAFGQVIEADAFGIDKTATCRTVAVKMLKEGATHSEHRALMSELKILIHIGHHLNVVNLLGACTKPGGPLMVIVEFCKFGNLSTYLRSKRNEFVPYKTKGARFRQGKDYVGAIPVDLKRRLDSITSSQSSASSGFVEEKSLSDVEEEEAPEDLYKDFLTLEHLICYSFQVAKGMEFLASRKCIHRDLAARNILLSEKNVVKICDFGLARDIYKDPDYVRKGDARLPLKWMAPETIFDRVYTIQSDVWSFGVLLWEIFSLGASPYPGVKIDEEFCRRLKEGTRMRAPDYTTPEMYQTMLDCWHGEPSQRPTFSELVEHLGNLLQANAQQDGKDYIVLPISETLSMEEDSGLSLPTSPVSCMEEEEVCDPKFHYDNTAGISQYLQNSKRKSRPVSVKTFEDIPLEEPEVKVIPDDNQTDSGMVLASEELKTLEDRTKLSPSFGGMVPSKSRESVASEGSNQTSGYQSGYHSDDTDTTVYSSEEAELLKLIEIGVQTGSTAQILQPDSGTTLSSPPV
c-Src, sequence (P12931 whole entry, species assumed): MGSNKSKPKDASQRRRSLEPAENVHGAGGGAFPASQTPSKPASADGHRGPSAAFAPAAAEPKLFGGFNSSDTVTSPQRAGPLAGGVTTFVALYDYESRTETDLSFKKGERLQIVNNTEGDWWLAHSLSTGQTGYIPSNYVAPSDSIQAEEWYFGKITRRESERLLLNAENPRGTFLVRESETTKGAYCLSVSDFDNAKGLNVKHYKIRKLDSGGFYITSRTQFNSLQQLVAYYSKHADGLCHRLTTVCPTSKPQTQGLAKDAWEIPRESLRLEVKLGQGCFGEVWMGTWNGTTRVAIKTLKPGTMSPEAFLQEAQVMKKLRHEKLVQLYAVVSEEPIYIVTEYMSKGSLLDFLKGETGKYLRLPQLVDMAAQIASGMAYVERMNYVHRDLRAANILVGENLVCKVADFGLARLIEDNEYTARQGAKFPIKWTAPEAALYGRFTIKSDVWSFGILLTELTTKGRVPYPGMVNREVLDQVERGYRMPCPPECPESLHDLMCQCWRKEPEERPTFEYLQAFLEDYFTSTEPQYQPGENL
c-Kit, sequence (P10721 26-976): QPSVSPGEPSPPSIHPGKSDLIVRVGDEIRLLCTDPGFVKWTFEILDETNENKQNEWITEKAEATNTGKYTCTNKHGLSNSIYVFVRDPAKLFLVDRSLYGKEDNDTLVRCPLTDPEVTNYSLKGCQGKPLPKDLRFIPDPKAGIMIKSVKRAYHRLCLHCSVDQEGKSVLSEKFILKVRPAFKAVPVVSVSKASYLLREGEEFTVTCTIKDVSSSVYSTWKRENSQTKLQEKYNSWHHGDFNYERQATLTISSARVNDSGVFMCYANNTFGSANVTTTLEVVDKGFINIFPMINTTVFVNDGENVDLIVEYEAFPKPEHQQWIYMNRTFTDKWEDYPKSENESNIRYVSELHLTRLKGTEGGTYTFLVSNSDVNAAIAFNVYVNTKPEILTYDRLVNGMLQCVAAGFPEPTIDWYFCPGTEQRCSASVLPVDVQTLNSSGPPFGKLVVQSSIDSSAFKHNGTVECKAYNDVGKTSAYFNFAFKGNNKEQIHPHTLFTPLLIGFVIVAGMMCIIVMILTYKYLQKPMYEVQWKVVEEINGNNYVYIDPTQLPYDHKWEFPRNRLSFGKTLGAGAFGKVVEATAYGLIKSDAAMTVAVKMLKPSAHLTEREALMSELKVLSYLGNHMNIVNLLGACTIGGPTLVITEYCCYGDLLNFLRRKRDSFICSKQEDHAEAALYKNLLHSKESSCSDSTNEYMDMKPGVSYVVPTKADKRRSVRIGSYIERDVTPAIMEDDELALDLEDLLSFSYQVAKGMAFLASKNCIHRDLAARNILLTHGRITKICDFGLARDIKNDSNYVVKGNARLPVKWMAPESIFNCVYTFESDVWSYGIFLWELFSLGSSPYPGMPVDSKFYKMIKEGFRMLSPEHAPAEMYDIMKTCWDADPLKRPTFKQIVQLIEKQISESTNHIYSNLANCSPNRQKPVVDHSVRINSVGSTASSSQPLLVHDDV
RET, sequence (P07949 29-1114, species assumed): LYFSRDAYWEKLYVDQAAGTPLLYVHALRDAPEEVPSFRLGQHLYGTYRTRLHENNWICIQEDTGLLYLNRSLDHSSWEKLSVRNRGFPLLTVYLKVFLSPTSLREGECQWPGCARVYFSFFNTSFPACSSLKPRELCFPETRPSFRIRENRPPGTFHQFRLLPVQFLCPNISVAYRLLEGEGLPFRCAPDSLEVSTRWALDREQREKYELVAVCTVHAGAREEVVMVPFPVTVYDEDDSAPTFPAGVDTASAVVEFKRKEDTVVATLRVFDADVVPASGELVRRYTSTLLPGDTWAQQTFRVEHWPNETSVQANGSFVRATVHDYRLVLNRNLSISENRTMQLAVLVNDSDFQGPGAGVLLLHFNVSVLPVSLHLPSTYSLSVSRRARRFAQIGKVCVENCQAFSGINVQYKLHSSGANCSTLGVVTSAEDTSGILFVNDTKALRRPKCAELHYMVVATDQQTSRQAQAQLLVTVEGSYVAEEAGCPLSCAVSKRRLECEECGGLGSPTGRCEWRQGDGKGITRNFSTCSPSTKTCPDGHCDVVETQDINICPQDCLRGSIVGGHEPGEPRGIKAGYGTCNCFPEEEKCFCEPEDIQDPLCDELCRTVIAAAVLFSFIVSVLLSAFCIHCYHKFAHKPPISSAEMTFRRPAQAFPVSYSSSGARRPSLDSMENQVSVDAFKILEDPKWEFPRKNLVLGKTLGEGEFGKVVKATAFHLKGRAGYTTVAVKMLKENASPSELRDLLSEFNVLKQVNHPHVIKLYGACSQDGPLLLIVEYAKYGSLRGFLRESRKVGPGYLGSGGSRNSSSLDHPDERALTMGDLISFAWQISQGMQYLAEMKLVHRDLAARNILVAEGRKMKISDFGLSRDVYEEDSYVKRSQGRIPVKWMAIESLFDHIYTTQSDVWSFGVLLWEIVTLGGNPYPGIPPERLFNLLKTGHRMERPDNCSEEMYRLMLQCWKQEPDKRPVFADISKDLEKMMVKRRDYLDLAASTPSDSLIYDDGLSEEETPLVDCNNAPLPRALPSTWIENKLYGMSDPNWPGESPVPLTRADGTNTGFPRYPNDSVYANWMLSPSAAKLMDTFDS

## Cc1ccc(NC(=O)Nc2ccc(Oc3ncnc4sc5c(c34)CCCC5)cc2)cc1Cl [Compound 21e]
VEGFR-2 (KDR)
  IC50: 21 nM
c-Kit
  inhibition at 10 µM: 64%
c-Raf
  inhibition at 10 µM: 71%
c-Src
  inhibition at 10 µM: 6%
RET
  inhibition at 10 µM: 91%
[1]; read-out: % Cell growth
  activity at 10 µM: 54%
[1]; read-out: % Cell inhibition
  inhibition at 10 µM: 46%
[2]; 5 mg/kg/day po, 8 consecutive days, mean ± SD, n = 6
  Tumor Index: 0.041 ± 0.007
[2]; 5 mg/kg/day po
  TGI (%): 79.1%
[2]; 5 mg/kg
  Histopathological examination of EAC tumor sections (necrosis): moderate diffuse necrosis
[2]; 10 mg/kg/day po
  TGI (%): 82.7%
[2]; 10 mg/kg
  Histopathological examination of EAC tumor sections (necrosis): severe necrosis in a wide area
[3]; 5 mg/kg/day po
  Brain Index: 0.0167 ± 0.002
  Heart Index: 0.0044 ± 0.0013
  Kidney Index: 0.012 ± 0.002
  Liver Index: 0.048 ± 0.006
[3]; 10 mg/kg/day po
  Brain Index: 0.0174 ± 0.002
  Heart Index: 0.0056 ± 0.0009
  Kidney Index: 0.013 ± 0.002
  Liver Index: 0.057 ± 0.007
[3]
  Histopathological examination of liver, kidney, heart and brain samples: without any histopathological alterations in liver, kidney and brain
[3]; oral, 5 and 10 mg/kg/day for 8 consecutive days
  Toxicity (overall statement): did not show any noticeable toxicity
[4]
  Antiangiogenic effect in Miles vascular permeability assay: confirmed the antiangiogenic effects
phospho-VEGFR-2 (Tyr951)
  VEGFR-2 phosphorylation in EAC solid tumor: decreased VEGFR-2 phosphoryaltion
Active caspase 3
  Active caspase 3 levels in EAC solid tumor: increased active caspase 3 levels
CD31 and CD34 (% MVD)
  %MVD in EAC solid tumor: reduction of %MVD

## CNC(=O)c1cc(Oc2ccc(NC(=O)Nc3ccc(Cl)c(C(F)(F)F)c3)cc2)ccn1 [Sorafenib]
c-Raf; read-out: Inhibition %, c-Raf, reference inhibitor
  inhibition at 1 µM: 92%
[2]; 10 mg/kg
  Histopathological examination of EAC tumor sections (necrosis): wide severe necrosis
[3]
  Histopathological examination of liver, kidney, heart and brain samples: Degenerative changes were found in the hepatocytes and hippocampus
[5]
  IC50: 57 nM
[6]
  IC50: 68 nM
[7]
  IC50: 33 nM
RET tyrosine kinase
  IC50: 50 nM
wild-type b-Raf
  IC50: 25 nM

## Cn1ccc2ncnc(Oc3ccc(NC(=O)Nc4cccc(C(F)(F)F)c4)c(F)c3)c21 [III]
VEGFR-2
  IC50: 6.2 nM
